One substance from patent US20260117174A1, “PRODUCTION METHOD OF THREE-DIMENSIONAL CELL CULTURE, CULTURE METHOD OF THREE-DIMENSIONAL CELL CULTURE, THREE-DIMENSIONAL CELL CULTURE, AND EVALUATION METHOD OF TEST SUBSTANCE” (FUJIFILM Corporation, priority 2023, published 2026) can be followed below.

The assay deals with three-dimensional co-culture of astrocytes, neurons and microglia. Description: Intercellular interactions during neuroinflammation: NF-κB p65 immunostaining of the three-dimensional co-culture after LPS treatment. The class given is cell-based, human. Conditions: 100 ng/ml final concentration; fixed 0, 0.5, 1, 3, 6 and 24 hours after treatment; co-culture cultured for 3 weeks. On the procedure:
• The three-dimensional co-culture that had been cultured for 3 weeks was treated with Lipopolysaccharide (LPS) from E. coli 0127 (FUJIFILM Wako Pure Chemical Corporation, 124-05151) such that the final concentration was 100 ng/ml, and fixed by treating, for 30 minutes, with a 4% paraformaldehyde-phosphate buffer solution (FUJIFILM Wako Pure Chemical Corporation, 161-20141) at 0, 0.5, 1, 3, 6, and 24 hours after the treatment. After washing with PBS(-), the co-culture was treated with Triton (registered trademark) X-100 solution (BioVision, 2104-100) diluted to 0.4% with PBS(-) for 15 minutes to perform permeation treatment. After the permeation treatment, the co-culture was treated with a BSA solution (Sigma-Aldrich, A416) adjusted at a concentration of 4% with PBS(-) for 30 minutes to perform blocking. […] After washing with PBS(-), imaging was performed with a confocal quantitative image cytometer CQ1 (Yokogawa Electric Corporation, Cell Voyager (registered trademark) CQ1) to acquire images.

For the substance Lipopolysaccharide [LPS], the “nuclear localization of NF-κB after the LPS treatment” value was “change in nuclear localization of NF-κB”.
